According to patent US7425580B2, “(Diaryl-methyl)-malononitriles and their use as estrogen receptor ligands” (Wyeth, priority 2004, dated 2008):

How the values were obtained:
[1] = system: uterine wet weight; experiment: Uterine wet weight increase in ovariectomized C57BL/6 mice; assay type: in vivo; details: EE 0.01 mg/kg/day, test compound 10 mg/kg/day, gavage, 5 weeks; for Uterine Wet Weight Increase, Fold Increase: compared to vehicle control
Protocol: Ovariectomized C57BL/6 mice (16-20 g) (Taconic) were separated into groups of 8. After 5-7 days of recuperation, the mice were fed a chow diet or an atherogenic diet (15.75% fat, 1.25% cholesterol and 0.5% sodium cholate) (Purina diet #21539). EE or test compound was administered once daily by gavage in a methylcellulose/tween vehicle (0.1 ml per mouse) for 5 weeks. At the end of the experimental period, the liver was collected and uterine wet weight was recorded. To determine the ability of estrogens to regulate the development of diet-induced inflammation in the liver, gene expression changes resulting from the atherogenic diet were monitored. Ovariectomized C57BL/6 mice were fed either a chow or atherogenic diet and treated daily with EE (0.01 mg/kg) or test compound (10 mg/kg) (Table 3).

[2] = system: NF-κB target genes (MHC invariant chain, VCAM-1, RANTES, TNF-α mRNA); experiment: Liver inflammatory gene expression (real time RT-PCR) in ovariectomized C57BL/6 mice on atherogenic diet; assay type: in vivo; details: EE 0.01 mg/kg daily
Protocol: Ovariectomized C57BL/6 mice (16-20 g) (Taconic) were separated into groups of 8. After 5-7 days of recuperation, the mice were fed a chow diet or an atherogenic diet (15.75% fat, 1.25% cholesterol and 0.5% sodium cholate) (Purina diet #21539). EE or test compound was administered once daily by gavage in a methylcellulose/tween vehicle (0.1 ml per mouse) for 5 weeks. At the end of the experimental period, the liver was collected and uterine wet weight was recorded.
Liver total RNA was prepared by using Trizol reagent (BRL). Estrogen and compound regulation of NF-κB target genes were verified by real time RT-PCR using an ABI PRISM 7700 Sequence Detection System according to the manufacturer's protocol (Applied Biosystems). The data was analyzed using the Sequence Detector v1.7 software (Applied Biosystems) and normalized to GAPDH using the Applied Biosystems primer set.
To determine the ability of estrogens to regulate the development of diet-induced inflammation in the liver, gene expression changes resulting from the atherogenic diet were monitored. Ovariectomized C57BL/6 mice were fed either a chow or atherogenic diet and treated daily with EE (0.01 mg/kg) or test compound (10 mg/kg) (Table 3).

[3] = system: IL-6; experiment: IL-6 expression (ELISA) in Ad5-wt-ER infected HAECT-1 cells (IL-1β stimulated); assay type: cell-based, human; details: for IL-6 Efficacy: relative to maximal inhibition observed with E2
Protocol: (§1) T-175 flasks of 100% confluent HAECT-1 cells (immortalized human aortic endothelial cells) were washed with 8 ml of HBSS (HEPES buffered saline solution) and infected for four hours with 6 ml of a 1:10 dilution of Ad5-wt-hERα virus (an adenovirus transfection vector that mediates CMV promoter driven expression of human ERα) in phenol red free Endothelial Cell Basal medium (Clonetics, San Diego Calif., Catalog # CC-3129) containing 0.25% bovine serum albumin (EBM-BSA). After four hours, cells were washed with EBM-BSA and incubated overnight in the same medium. Following overnight incubation, cells were washed with EBM-BSA and infected for 2 hours with 6 ml of a 1:10 dilution of Ad5-3×(NFKκB).Luc virus (Adenovirus luciferase expression vector driven by 3 repeats of the MHC NFκβ site 5′ to the thymidine kinase promoter) in EBM-BSA. After two hours, cells were washed and incubated at 34° C. for 1 hour. Cells were then washed, trypsinized, counted and resuspended in 95% FBS/5% dimethylsulfoxide at a concentration of 4×10^6 cells/ml, frozen as 1 or 5 ml aliquots in cryo-vials and stored at −150° C. Control (no ER infection) cells were processed as above without Ad5-wt-hERα virus infection.
(§2) ERα infected HAECT-1 cells or control cells were thawed, diluted 42× in warm EBM-BSA, plated into 96-well plates at 0.1 ml/well and incubated for 4 h at 34° C. Test compounds were added to the cells as 2× stocks in EBM-BSA containing 2 ng/ml IL-1β (R&D Systems) and plates were returned to the incubator (34° C.). After 15-20 h, 100 μl aliquots of media were removed from the cells and assayed for IL-6 content using a BioSource human IL-6 ELISA Kit. Cells were subsequently washed with 300 μl of Dulbecco's phosphate buffered saline and lysed in 50 μl of Cell Culture Lysis Reagent (Promega). Luciferase was determined on a Wallac Victor^2 Luminometer (Gaithersburg, Md.) using 10 μl of lysate and mixing with 100 μl of Promega Luciferase Assay reagent. Creatine kinase was determined from the rate of increase in A340 following addition of 100 μl of CK assay reagent (Sigma, cat. No 47-10) to the remainder of the cell lysate.
(§3) For IC50 and EC50 calculations, mean IL-6, luciferase or CK values versus log10 of the compound concentration were fitted to a four parameter logistic equation. The IC50/EC50 value, ‘Hill slope’, upper and lower limits of the curve were iteratively estimated.

[4] = system: creatine kinase; experiment: Creatine kinase expression in Ad5-wt-ER infected HAECT-1 cells; assay type: cell-based, human; details: for IC50: Homo sapiens, HAECT1, stimulation of CK; for CK Efficacy: relative to maximal stimulation observed with E2
Protocol: as §1, §2, §3

[5] = system: NF-κB; experiment: NF-κB luciferase reporter in non ER infected HAECT-1 cells; assay type: cell-based, human
Protocol: T-175 flasks of 100% confluent HAECT-1 cells (immortalized human aortic endothelial cells) were washed with 8 ml of HBSS (HEPES buffered saline solution) and infected for four hours with 6 ml of a 1:10 dilution of Ad5-wt-hERα virus (an adenovirus transfection vector that mediates CMV promoter driven expression of human ERα) in phenol red free Endothelial Cell Basal medium (Clonetics, San Diego Calif., Catalog # CC-3129) containing 0.25% bovine serum albumin (EBM-BSA). After four hours, cells were washed with EBM-BSA and incubated overnight in the same medium. […] Cells were then washed, trypsinized, counted and resuspended in 95% FBS/5% dimethylsulfoxide at a concentration of 4×10^6 cells/ml, frozen as 1 or 5 ml aliquots in cryo-vials and stored at −150° C. […]
ERα infected HAECT-1 cells or control cells were thawed, diluted 42× in warm EBM-BSA, plated into 96-well plates at 0.1 ml/well and incubated for 4 h at 34° C. […] Luciferase was determined on a Wallac Victor^2 Luminometer (Gaithersburg, Md.) using 10 μl of lysate and mixing with 100 μl of Promega Luciferase Assay reagent. Creatine kinase was determined from the rate of increase in A340 following addition of 100 μl of CK assay reagent (Sigma, cat. No 47-10) to the remainder of the cell lysate. […]

[6] = system: NF-κB; experiment: NF-κB luciferase reporter in Ad5-wt-ER infected HAECT-1 cells (IL-1β stimulated); assay type: cell-based, human; details: for Emax: relative to maximal inhibition observed with E2, read-out: NF-κB Efficacy
Protocol: as §1, §2, §3

[7] = Ad5-wt-ER infected HAECT-1 cells
[8] = Homo sapiens, HAECT1, Ad5-wt-ER infected HAECT-1 cells

IC50 [3, 8] [nM]	IC50 [4] [nM]	IC50 [6, 8] [nM]	Compound	IL-6 Efficacy [3, 7] [%]	CK Efficacy [4] [%]	Emax [6, 8] [%]	also measured
–	–	–	C#C[C@]1(O)CC[C@H]2[C@@H]3CCc4cc(O)ccc4[C@H]3CC[C@@]21C [EE, 17α-ethinyl-17β-estradiol, reference compound]	–	–	–	Uterine Wet Weight Increase, Efficacy [1]: 100%; Uterine Wet Weight Increase, Fold Increase [1]: 5.0; Atherogenic diet induction of mRNA for MHC invariant chain, VCAM-1, RANTES and TNF-α in liver [2]: strongly suppressed
1220	8.7	–	COc1ccccc1C(c1cccc2ccccc12)C(C#N)C#N (stereo not drawn) [Ex. 1, 2-[(2-Methoxyphenyl)(1-naphthyl)methyl]malononitrile]	118	27	–	NF-κB IC50 [5]: inactive
1040	–	853	COc1cccc(C(c2cccc3ccccc23)C(C#N)C#N)c1 (stereo not drawn) [Ex. 3, 2-[(3-Methoxyphenyl)(1-naphthyl)methyl]malononitrile]	92	–	138	–
1010	–	–	Cc1ccccc1C(c1cccc2ccccc12)C(C#N)C#N (stereo not drawn) [Ex. 4, 2-[(2-Methylphenyl)(1-naphthyl)methyl]malononitrile]	127	–	–	–
–	–	1660	Cc1ccc(C(c2cccc3ccccc23)C(C#N)C#N)cc1 (stereo not drawn) [Ex. 5, 2-[(4-Methylphenyl)(1-naphthyl)methyl]malononitrile]	–	–	154	–
–	–	1640	COc1ccc(C(c2cccc3ccccc23)C(C#N)C#N)cc1 (stereo not drawn) [Ex. 6, 2-[(4-Methoxyphenyl)(1-naphthyl)methyl]malononitrile]	–	–	137	–
24	30.7	9.9	COc1ccccc1C(c1cccc2ccccc12)C(C)(C#N)C#N (stereo not drawn) [Ex. 7, 2-[(2-Methoxyphenyl)(1-naphthyl)methyl]-2-methylmalononitrile]	144	28	98	IC50 [6, 7]: 17.5 nM; NF-κB IC50 [5]: inactive; Uterine Wet Weight Increase, Efficacy [1]: 18%; Uterine Wet Weight Increase, Fold Increase [1]: 2.2; melting point: 175 to 177 °C
560	–	768	N#CC(C#N)C(c1cccc2ccccc12)c1cccc2ccccc12 [Ex. 8, 2-[Di(1-naphthyl)methyl]malononitrile]	152	–	176	IC50 [6, 7]: 581 nM; melting point: 179 to 181 °C
–	5.8	–	C[C@]12CC[C@@H]3c4ccc(O)cc4CC[C@H]3[C@@H]1CC[C@@H]2O [Example E2, 17β-estradiol, reference compound]	100	100	–	IC50 [3, 7]: 1.7 nM
